Data set [1] can be described thus: Storage stability of the bulk. The following applies: should be refrigerated to ensure stability. The format is physicochemical.
The conditions of data set [2]: cited from earlier work.
The test system of another data set is cerebral infarction. The following applies: focal cerebral ischemia model; Non-Patent References 1 and 2; cited from earlier work.
The nature of data set [3]: Hygroscopicity test (time course weight changes under controlled relative humidity at 25° C.). The data set is classed as physicochemical. Set-up: Time course weight changes: unit not given here. The following applies: for Hygroscopicity: ˜0% to 93% RH, up to 7 days. The protocol:
About 1 g each of the compound (I) and the compound (II) of anhydride compound A were weighed accurately in weighing bottles (seven) of known weight, then stored under the following conditions at 25° C., and time course weight changes were measured.
RH herein means relative humidity.

The next data set relates to AMPA receptor. The following applies: tautomer, salt, hydrate or solvate; Patent Reference 1; cited from earlier work.
In the next data set the test system is audiogenic seizure. The following applies: DBA/2 mouse; tautomer, salt, hydrate or solvate; Patent Reference 1; cited from earlier work.
The test system of data set [4] is kainic acid neurotoxicity. The following applies: tautomer, salt, hydrate or solvate; Patent Reference 1; cited from earlier work.
The mark [5] stands for this setting: ˜0% RH (silica gel), 25° C., Day 1.
Where [6] appears, read: ˜0% RH (silica gel), 25° C., Day 2.
Where [7] appears, read: ˜0% RH (silica gel), 25° C., Day 4.
The mark [8] stands for this setting: ˜0% RH (silica gel), 25° C., Day 7.

SMILES strings stand for the structures.

In the case of `O=C(O)Cn1c(=O)c(=O)[nH]c2cc([N+](=O)[O-])c(-n3ccnc3)cc21` [1 hydrate of the compound A, [7-(1H-imidazol-1-yl)-6-nitro-2,3-dioxo-3,4-dihydroquinoxalin-1(2H)-yl]acetic acid], the “Storage stability (impurities)” value in data set [1] is reported as “may increase impurities depending on storage condition”. Besides, the Water-solubility entry in data set [2] (Non-Patent References 1 and 2) is listed as “high water-solubility”. The “Reducing effect on the volume of cerebral infarction” value in the data set on cerebral infarction was “excellent reducing effect”.
For the compound `O=C(O)Cn1c(=O)c(=O)[nH]c2cc([N+](=O)[O-])c(-n3ccnc3)cc21` [compound (I), [7-(1H-imidazol-1-yl)-6-nitro-2,3-dioxo-3,4-dihydroquinoxalin-1(2H)-yl]acetic acid], in data set [3], the Stability against humidity result is given as “excellent stability against humidity”. Besides, the “Time course weight changes” value in data set [3] (33% RH, 25° C., Day 1) came to 0.09; in data set [3] (33% RH, 25° C., Day 2), 0.06; in data set [3] (33% RH, 25° C., Day 4) it was 0.10; in data set [3] (33% RH, 25° C., Day 7), 0.08; in data set [3] (51% RH, 25° C., Day 1), 0.03; in data set [3] (51% RH, 25° C., Day 2), 0.04. For the same compound, the “Time course weight changes” value in data set [3] (51% RH, 25° C., Day 4) amounted to 0.10; in data set [3] (51% RH, 25° C., Day 7), 0.09; in data set [3] (63.5% RH, 25° C., Day 1), 0.03; in data set [3] (63.5% RH, 25° C., Day 2) it was 0.06; in data set [3] (63.5% RH, 25° C., Day 4), 0.10; in data set [3] (63.5% RH, 25° C., Day 7), 0.11. The “Time course weight changes” value was found to be 0.04 in data set [3] (75% RH, 25° C., Day 1); 0.07 in data set [3] (75% RH, 25° C., Day 2); 0.13 in data set [3] (75% RH, 25° C., Day 4); 0.10 in data set [3] (75% RH, 25° C., Day 7); 0.05 in data set [3] (84% RH, 25° C., Day 1); 0.09 in data set [3] (84% RH, 25° C., Day 2). Besides, the “Time course weight changes” value in data set [3] (84% RH, 25° C., Day 4) came out at 0.11; in data set [3] (84% RH, 25° C., Day 7), 0.13; in data set [3] (93% RH, 25° C., Day 1), 0.09; in data set [3] (93% RH, 25° C., Day 2), 0.10; in data set [3] (93% RH, 25° C., Day 4), 0.15; in data set [3] (93% RH, 25° C., Day 7), 0.13. Besides, the “Time course weight changes” value was 0.03 in data set [3] (setting [5]), −0.01 in data set [3] (setting [6]), 0.02 in data set [3] (setting [7]) and 0.01 in data set [3] (setting [8]). Also, in data set [3] (25° C.), the Hygroscopicity result is listed as “stable under any relative humidity conditions almost without showing hygroscopicity”.
Turning to `O=C(O)Cn1c(=O)c(=O)[nH]c2cc([N+](=O)[O-])c(-n3ccnc3)cc21` [compound (II), [7-(1H-imidazol-1-yl)-6-nitro-2,3-dioxo-3,4-dihydroquinoxalin-1(2H)-yl]acetic acid], the Stability against humidity entry in data set [3] is on record as “unstable against humidity”. Further, the “Time course weight changes” value in data set [3] (33% RH, 25° C., Day 1) is on record as 5.26; in data set [3] (33% RH, 25° C., Day 2) it was 5.29; in data set [3] (33% RH, 25° C., Day 4) it was 5.32; in data set [3] (33% RH, 25° C., Day 7), 5.33; in data set [3] (51% RH, 25° C., Day 1), 5.39; in data set [3] (51% RH, 25° C., Day 2), 5.39. The “Time course weight changes” value in data set [3] (51% RH, 25° C., Day 4) is 5.40; in data set [3] (51% RH, 25° C., Day 7) it was 5.38; in data set [3] (63.5% RH, 25° C., Day 1), 5.47; in data set [3] (63.5% RH, 25° C., Day 2) it was 5.47; in data set [3] (63.5% RH, 25° C., Day 4) it was 5.49; in data set [3] (63.5% RH, 25° C., Day 7), 5.49. For the same compound, the “Time course weight changes” value stood at 5.47 in data set [3] (75% RH, 25° C., Day 1); 5.47 in data set [3] (75% RH, 25° C., Day 2); 5.51 in data set [3] (75% RH, 25° C., Day 4); 5.46 in data set [3] (75% RH, 25° C., Day 7); 5.51 in data set [3] (84% RH, 25° C., Day 1); 5.52 in data set [3] (84% RH, 25° C., Day 2). The “Time course weight changes” value in data set [3] (84% RH, 25° C., Day 4) came out at 5.52; in data set [3] (84% RH, 25° C., Day 7) it was 5.51; in data set [3] (93% RH, 25° C., Day 1), 5.52; in data set [3] (93% RH, 25° C., Day 2) it was 5.49; in data set [3] (93% RH, 25° C., Day 4) it was 5.54; in data set [3] (93% RH, 25° C., Day 7), 5.51. For the same compound, the “Time course weight changes” value in data set [3] (setting [5]) came to 0.09; in data set [3] (setting [6]) it was 0.08; in data set [3] (setting [7]), 0.07; in data set [3] (setting [8]), 0.04. In addition, in data set [3] (after one day, at least 33% RH or more, 25° C.), the Absorbed water was 1 mol water per mol compound. Further, the Hygroscopicity entry in data set [3] (25° C.) is on record as “strong hygroscopicity”.
Take `O=C(O)Cn1c(=O)c(=O)[nH]c2cc([N+](=O)[O-])c(-n3ccnc3)cc21` [compound A, [7-(1H-imidazol-1-yl)-6-nitro-2,3-dioxo-3,4-dihydroquinoxalin-1(2H)-yl]acetic acid]: in the data set with AMPA receptor, the “Affinity for the AMPA receptor” value is recorded as “high affinity”. In data set [2] (Patent Reference 1), the Solubility entry is reported as “excellent solubility”. In the data set with audiogenic seizure, the “Anticonvulsant effect for audiogenic seizure” value is “potent activities”. The “Inhibitory action against kainic acid neurotoxicity” value in data set [4] is “potent activities”.

Source of the values: patent US20050130978A1, “Novel crystal of quinoxalinedione derivative anhydride” (priority 2002, published 2005).
